Experimental data published in patent US8906928B2, “Substituted pyrazolo-pyrrolo-pyridine-dione compounds” (ArQule, Inc., priority 2009, dated 2014).

What was measured:
Format in all cases: cell-based
DLD-1 = test: MTS assay (cell growth inhibition), DLD-1; conditions: DLD-1 cells, 72 hours incubation with test compound; concentration not given
Method in brief: (§1)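 First, seed 3000 cells per well in low-serum (1% FBS) DMEM and culture 18 h. Next, add compounds prepared at 300× in DMSO and diluted 1:40 in DMEM; incubate 72 h. Finally, add MTS/PMS for 4 h and measure absorbance at 492 nm.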

Kato III = test: MTS assay (cell growth inhibition), Kato III; conditions: Kato III cells, 72 hours incubation with test compound; concentration not given
Method in brief: as §1

MDA-MB = test: MTS assay (cell growth inhibition), MDA-MB; conditions: MDA-MB cells, 72 hours incubation with test compound; concentration not given
Method in brief: as §1

NCI-H1299 = test: MTS assay (cell growth inhibition), NCI-H1299; conditions: NCI-H1299 cells, 72 hours incubation with test compound; concentration not given
Method in brief: as §1

PACA-2 = test: MTS assay (cell growth inhibition), PACA-2; conditions: PACA-2 cells, 72 hours incubation with test compound; concentration not given
Method in brief: as §1

PC-3 = test: MTS assay (cell growth inhibition), PC-3; conditions: PC-3 cells, 72 hours incubation with test compound; concentration not given
Method in brief: as §1

Row | SMILES | MTS CELL KILL DATA (% INHIBITION) DLD-1 (DLD-1) | MTS CELL KILL DATA (% INHIBITION) Kato III (Kato III) | MTS CELL KILL DATA (% INHIBITION) MDA-MB (MDA-MB) | MTS CELL KILL DATA (% INHIBITION) NCI-H1299 (NCI-H1299) | MTS CELL KILL DATA (% INHIBITION) PACA-2 (PACA-2) | MTS CELL KILL DATA (% INHIBITION) PC-3 (PC-3)
1 | O=C1c2cnc3[nH]ncc3c2C(=O)N1Cc1ccc(Cl)c(C(F)(F)F)c1 [Example 136, 7-[4-chloro-3-(trifluoromethyl)benzyl]pyrazolo[3,4-b]pyrrolo[3,4-d]pyridine-6,8(3H,7H)-dione] | C (C = <50% INHIBITION) | C (C = <50% INHIBITION) | C (C = <50% INHIBITION) | C (C = <50% INHIBITION) | C (C = <50% INHIBITION) | C (C = <50% INHIBITION)
2 | Cc1ccc2c(c1)N(CCN1C(=O)c3cnc4[nH]ncc4c3C1=O)C(C)(C)CC2C (stereo not drawn) [Example 29, 7-[2-(2,2,4,7-tetramethyl-3,4-dihydroquinolin-1(2H)-yl)ethyl]pyrazolo[3,4-b]pyrrolo[3,4-d]pyridine-6,8(3H,7H)-dione] | C (C = <50% INHIBITION) | C (C = <50% INHIBITION) | A (A = 80-100% INHIBITION) | C (C = <50% INHIBITION) | A (A = 80-100% INHIBITION) | A (A = 80-100% INHIBITION)
3 | COc1ccc(CN2C(=O)c3cnc4[nH]ncc4c3C2=O)c(Cl)c1 [Example 109, 7-(2-chloro-4-methoxybenzyl)pyrazolo[3,4-b]pyrrolo[3,4-d]pyridine-6,8(3H,7H)-dione] | A (A = 80-100% INHIBITION) | A (A = 80-100% INHIBITION) | A (A = 80-100% INHIBITION) | A (A = 80-100% INHIBITION) | A (A = 80-100% INHIBITION) | A (A = 80-100% INHIBITION)
4 | Cc1ccc(Cl)c(CN2C(=O)c3cnc4[nH]ncc4c3C2=O)c1F [Example 19, 7-(6-chloro-2-fluoro-3-methylbenzyl)pyrazolo[3,4-b]pyrrolo[3,4-d]pyridine-6,8(3H,7H)-dione] | C (C = <50% INHIBITION) | A (A = 80-100% INHIBITION) | B (B = 50-79% INHIBITION) | C (C = <50% INHIBITION) | C (C = <50% INHIBITION) | A (A = 80-100% INHIBITION)
5 | O=C1c2cnc3[nH]ncc3c2C(=O)N1CC1CCCO1 (stereo not drawn) [Example 107, 7-(tetrahydrofuran-2-ylmethyl)pyrazolo[3,4-b]pyrrolo[3,4-d]pyridine-6,8(3H,7H)-dione] | C (C = <50% INHIBITION) | C (C = <50% INHIBITION) | B (B = 50-79% INHIBITION) | C (C = <50% INHIBITION) | C (C = <50% INHIBITION) | B (B = 50-79% INHIBITION)
6 | O=C1c2cnc3[nH]ncc3c2C(=O)N1CCSc1nc2ccccc2s1 [Example 32, 7-[2-(1,3-benzothiazol-2-ylthio)ethyl]pyrazolo[3,4-b]pyrrolo[3,4-d]pyridine-6,8(3H,7H)-dione] | C (C = <50% INHIBITION) | B (B = 50-79% INHIBITION) | C (C = <50% INHIBITION) | C (C = <50% INHIBITION) | C (C = <50% INHIBITION) | A (A = 80-100% INHIBITION)
7 | O=C1c2cnc3[nH]ncc3c2C(=O)N1CCCc1cccnc1 [Example 87, 7-(3-pyridin-3-ylpropyl)pyrazolo[3,4-b]pyrrolo[3,4-d]pyridine-6,8(3H,7H)-dione] | C (C = <50% INHIBITION) | C (C = <50% INHIBITION) | C (C = <50% INHIBITION) | C (C = <50% INHIBITION) | C (C = <50% INHIBITION) | C (C = <50% INHIBITION)
8 | Cc1c(C)c(C)c(CN2C(=O)c3cnc4[nH]ncc4c3C2=O)c(C)c1C [Example 8, 7-(pentamethylbenzyl)pyrazolo[3,4-b]pyrrolo[3,4-d]pyridine-6,8(3H,7H)-dione] | C (C = <50% INHIBITION) | C (C = <50% INHIBITION) | B (B = 50-79% INHIBITION) | C (C = <50% INHIBITION) | C (C = <50% INHIBITION) | A (A = 80-100% INHIBITION)
9 | O=C1c2cnc3[nH]ncc3c2C(=O)N1Cc1c(F)ccc(F)c1Cl [Example 48, 7-(2-chloro-3,6-difluorobenzyl)pyrazolo[3,4-b]pyrrolo[3,4-d]pyridine-6,8(3H,7H)-dione] | C (C = <50% INHIBITION) | B (B = 50-79% INHIBITION) | A (A = 80-100% INHIBITION) | C (C = <50% INHIBITION) | B (B = 50-79% INHIBITION) | C (C = <50% INHIBITION)
10 | C[C@@H](CN1C(=O)c2cnc3[nH]ncc3c2C1=O)c1ccccc1 [Example 82, 7-[(2R)-2-phenylpropyl]pyrazolo[3,4-b]pyrrolo[3,4-d]pyridine-6,8(3H,7H)-dione] | C (C = <50% INHIBITION) | C (C = <50% INHIBITION) | A (A = 80-100% INHIBITION) | C (C = <50% INHIBITION) | C (C = <50% INHIBITION) | A (A = 80-100% INHIBITION)
